The record followed here is patent US9242977B2, “Trk-inhibiting compound” (ONO PHARMACEUTICAL CO., LTD., priority 2012, dated 2016).

Test [1] concerns the target T1, TrkA (Homo sapiens (Human), UniProt P04629). The test is described as follows: TrkA kinase-inhibiting activity using human TrkA expressing cells (CellSenser TrkA-NFAT-bla CHO-K1, NGF-stimulated reporter assay). It counts as cell-based. The settings on record: CHO-K1 cells expressing human TrkA and NFAT-bla; NGF 50 ng/ml; read-out: TrkA inhibitory activity (IC50; μM). On the procedure:
TrkA kinase-inhibiting activity in cell systems was measured using CHO-K1 cells expressing human TrkA and NFAT-bla (CellSenser™ TrkA-NFAT-bla CHO-K1 cells, Invitrogen).
On the day before the assay, CellSenser™ TrkA-NFAT-bla CHO-K1 cells were suspended in an assay medium (Opti-MEM1 Reduced Serum Medium (Invitrogen) containing 0.5% dialysed fetal bovine serum (Invitrogen), 0.1 mM nonessential amino acids (Invitrogen), 1 mM sodium pyruvate (Invitrogen) and antibiotics (100 U/mL penicillin and 100 μg/mL streptomycin (Invitrogen)) and plated at a density of 2.4×10^4 cells/40 μL/well in a 96-well clear bottom plate (Corning, Catalogue No.: 3882). In some wells were added only the assay medium at 40 μL/well (Cell-free). On the day of the assay, 10 mM of the present compound (DMSO solution) was distributed in a 96-well plate (Costar, Catalogue No.: 3363) and serially diluted with DMSO with the geometrical ratio of 3. The serial dilutions were diluted with the assay medium to 100-fold to prepare a solution of the present compound with a 10-times concentration (DMSO concentration: 1%). To the plate where cells were plated was added the present compound at 5 μL/well and the plate was incubated in a CO2 incubator with 5% CO2, 95% Air at 37° C. for 30 minutes. For a control and a blank, the assay medium containing 1% DMSO was added at 5 μL/well in place of the solution of the present compound. Subsequently the assay medium containing NGF (Mouse 2.5s, Natural, Invitrogen) was added to the plate at 5 µL/well (final concentration of NGF: 50 ng/ml) and the plate was incubated in a CO2 incubator with 5% CO2, 95% Air at 37° C. for 5 hours. For a group of blanks, the assay medium was added in place of NGF at 5 μL/well. A reporter assay detection reagent (10 μL/well) was added to the plate and the plate was then incubated in the dark at room temperature for 120 minutes. The reporter assay detection reagent was prepared from LiveBLAzer™-FRET B/G Loading Kit (Invitrogen). On an Analyst GT (Molecular Devices Japan, K.K.) the wells were irradiated with excitation light at 405 nm and the fluorescence intensities at 460 nm and 530 nm were measured. The time resolved fluorescence resonance energy transfer (TR-FRET) ratio of each well was calculated according to the following Equation 2. TR-FRET Ratio=(A460X−A460F)/(A530X−A530F) Equation 2
wherein A460X: the fluorescence intensity at 460 nm of the present compound, control or blank;
A460F: the fluorescence intensity at 460 nm of the Cell-free;
A530X: the fluorescence intensity at 530 nm of the present compound, control or blank; and
A530F: the fluorescence intensity at 530 nm of the Cell-free. […]
The IC50 value of the present compound was calculated from the inhibition curve based on the inhibition rate of the present compound at respective concentrations.

For test [2], the system named is NGF-induced vascular hyper permeability. Put plainly: Suppression of rat NGF-induced vascular hyper permeability (in vivo test, Evans Blue). To be noted: oral, 12 hours after administration, read-out: Rates of Suppression for Vascular Hyper Permeability (%). On the procedure:
TrkA-inhibiting activity of the present compound was evaluated in vivo. The present compound dissolved in a medium was orally administered (adminstered volume: 5 mL/kg) to male CD(SD)IGS rats (7- to 9-week old, Charles River laboratories Japan, Inc.) shaved on the back. A medium was orally administered (adminstered volume: 5 mL/kg) to the control and normal groups. After 6 or 12 hours of administration, 3 μg/mL of a NGF (Mouse 2.5s, Natural, Invitrogen) solution prepared in 0.1% BSA (Sigma-Aldrich)-containing saline was intracutaneously administered (dose; 50 μL/site) at 3 sites on the back of animals under halothane anesthesia. For the normal group, 0.1% BSA-containing saline was intracutaneously administered (dose; 50 μL/site) at 3 sites on the back. Immediately after intracutaneous administration, 1% Evans Blue (Tokyo Chemical Industry Co., Ltd.) was administered intravenously from tail (adminstered volume: 3 mL/kg). After 10 minutes of administration, the animals were sacrificed by bleeding due to incision of the abdominal aorta. The sites of intracutaneous administration on the back (3 sites) were excised and the skin samples were respectively transferred to the wells in a 48-well plate (Asahi Glass Co., Ltd.). Formamide (0.8 mL/well) was added to the plate and the plate was sealed and incubated overnight at 60° C. The formamide extraction solution (200 μL) was transferred to a 96-well plate and the absorbance (wavelength: 620 nm) of Evans Blue extracted in formamide was measured on an absorbance microplate reader (SpectraMAX 190, Molecular Devices Japan, K.K.). Standard samples of Evans Blue dissolved in formamide (0, 0.78, 1.56, 3.13, 6.25, 12.5, 25 and 50 μg/mL) were measured at the same time for the absorbance (wavelength: 620 nm) to generate a calibration curve. Based on the calibration curve and the absorbances of samples, the concentrations of Evans Blue in the sample was calculated. The concentrations of Evans Blue for three skin samples collected from one aminal were averaged to obtain the vale for the animal. The rate of suppression for rat NGF-induced vascular hyper permeability of the present compound was calculated according to the following Equation 4: Suppression rate (%)=(1−(AX−AN)/(AC−AN)}×100 Equation 4
wherein AX: the concentration of Evans Blue of the test compound (an average value of 3 samples from one animal);
AN: the concentration of Evans Blue of the normal group (an average value of 3 samples from one animal);
AC: the concentration of Evans Blue of the control group (an average value of 3 samples from one animal).

Test [3] addresses T1, TrkA. Put plainly: Measurement of TrkA enzyme-inhibiting activity (LanthaScreen TR-FRET kinase assay). It counts as biochemical. The settings on record: final ATP 150 μM, read-out: TrkA inhibitory activity (IC50; μM). How it is done:
TrkA-inhibiting activity was measured according to the following method using LanthaScreen™ kinase assay reagents (Invitrogen; Fluorescein-Poly GT, LanthaScreen™ Tb-PY20 and TR-FRET Dilution Buffer), TrkA (Invitrogen), ATP (Sigma-Aldrich), a kinase reaction buffer (50 mM HEPES buffer (Sigma-Aldrich) (pH 7.5) containing 0.01% Brij35 (Sigma-Aldrich), 10 mM MgCl2 (Sigma-Aldrich) and 1 mM EGTA (Sigma-Aldrich)) and 0.5 M EDTA (pH 8.0) (Invitrogen).
The present compound was dissolved in dimethylsulfoxide (hereinafter abbreviated as DMSO) to prepare a 10 mM solution. The test compound at 10 mM was distributed into a 96-well plate and serially diluted with DMSO with the geometrical ratio of 3. The serial dilutions (DMSO solutions) were diluted with the kinase reaction buffer to 20-fold to prepare solutions of the present compound with 5-times concentrations (DMSO concentration: 5%). TrkA was diluted with the kinase reaction buffer to prepare a solution at 38.5 ng/mL (enzyme solution). Adenosine triphosphate (hereinafter abbreviated as ATP) was preliminarily diluted in distilled water to prepare a 10 mM solution which was then divided into containers and stored at −20° C. The 10 mM ATP solution and Fluorescein-Poly GT were diluted in the kinase reaction buffer to prepare a solution containing […] of ATP and 500 nM of Fluorescein-Poly GT (ATP-substrate solution). EDTA (0.5 M; pH 8.0) and LanthaScreen™ Tb-PY20 were diluted in the TR-FRET Dilution Buffer to prepare a solution containing 20 mM of EDTA and 4 nM of LanthaScreen™ Tb-PY20 (detection buffer).
The solutions of the present compound (5 μL/well) and the enzyme solution (10 μL/well) were added to a 96-half well assay plate and the plate was shaken at room temperature for 10 minutes on a plate shaker (IKA™ MTS2/4 digital microplate, IKA Japan K.K.). As a control and a blank, the kinase reaction buffer containing 5% DMSO (5 μL/well) was added in place of the solution of the present compound. As a blank, the kinase reaction buffer (10 μL/well) was added in the place of the enzyme solution. The ATP-substrate solution (10 μL/well) was then added to the plate to initiate kinase reaction and the plate was shaken in the dark at room temperature for 1 hour on the plate shaker (final concentration of TrkA: 15.4 ng/mL, final concentration of the substrate: 200 nM and final concentration of ATP: 150 μM). Kinase reaction was terminated by adding the detection buffer (25 μL/well) to the plate and the plate was shaken in the dark at room temperature for 30 minutes on the plate shaker. On an Analyst GT (Molecular Devices Japan, K.K.) the wells were irradiated with excitation light at 340 nm and the fluorescence intensities at 520 nm and 495 nm were measured. The fluorescence intensity at 520 nm for each well was divided by the fluorescence intensity at 495 nm to calculate the time resolved fluorescence resonance energy transfer (TR-FRET) ratio.
The inhibition rate (%) of the present compound was calculated according to the following Equation 1: Inhibition rate (%)={1−(AX−AB)/(AC−AB)×100 Equation 1
wherein AX: the TR-FRET ratio when the present compound is added;
AB: the TR-FRET of the blank; and
AC: the TR-FRET of the control.
The value for 50% inhibition by the present compound (IC50 value) was calculated from the inhibition curve based on the inhibition rate of the present compound at respective concentrations.
(TR-FRET usually uses a lanthanide donor and a delayed reading to cut background.)

T1 sequence (P04629 33-796): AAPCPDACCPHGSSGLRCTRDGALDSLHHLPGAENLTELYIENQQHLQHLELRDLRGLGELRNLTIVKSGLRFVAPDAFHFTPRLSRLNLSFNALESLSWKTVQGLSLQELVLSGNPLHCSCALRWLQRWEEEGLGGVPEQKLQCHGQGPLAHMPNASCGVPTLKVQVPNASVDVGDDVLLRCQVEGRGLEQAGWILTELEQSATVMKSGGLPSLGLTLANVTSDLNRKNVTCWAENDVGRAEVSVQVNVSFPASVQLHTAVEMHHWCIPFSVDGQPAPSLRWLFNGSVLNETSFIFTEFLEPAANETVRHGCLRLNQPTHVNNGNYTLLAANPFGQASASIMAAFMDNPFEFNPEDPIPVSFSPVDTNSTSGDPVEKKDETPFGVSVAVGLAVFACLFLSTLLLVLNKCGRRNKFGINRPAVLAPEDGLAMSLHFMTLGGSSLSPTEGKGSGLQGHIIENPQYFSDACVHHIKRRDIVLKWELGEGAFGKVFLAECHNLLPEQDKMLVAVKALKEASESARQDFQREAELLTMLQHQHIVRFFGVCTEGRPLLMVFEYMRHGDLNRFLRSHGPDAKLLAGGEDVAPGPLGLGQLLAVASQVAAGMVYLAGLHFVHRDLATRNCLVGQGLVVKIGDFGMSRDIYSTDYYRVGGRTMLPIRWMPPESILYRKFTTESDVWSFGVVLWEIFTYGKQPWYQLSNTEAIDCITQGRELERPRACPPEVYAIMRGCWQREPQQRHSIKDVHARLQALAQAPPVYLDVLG

One may read the IC50 as the concentration that gives 50% inhibition. In the case of `CCCNc1ncc(-c2ccc(Oc3ncc(NC(=O)Nc4cc(C(F)(F)F)ccc4S(=O)(=O)N(C)C)cn3)cc2)s1` [Example 85-225, N,N-dimethyl-2-{[(2-{4-[2-(propylamino)-1,3-thiazol-5-yl]phenoxy}-5-pyrimidinyl)carbamoyl]amino}-4-(trifluoromethyl)benzenesulfonamide], at TrkA [1], the IC50 amounted to 0.004 µM. Further, the inhibition in vivo at 1 mg/kg in test [2] was 94%.

In the case of `CCCNc1ncc(-c2ccc(Oc3ncc(NC(=O)Nc4cc(C(F)(F)F)ccc4S(C)(=O)=O)cn3)cc2)s1` [Example 85-226, 1-[2-(methylsulfonyl)-5-(trifluoromethyl)phenyl]-3-(2-{4-[2-(propylamino)-1,3-thiazol-5-yl]phenoxy}-5-pyrimidinyl)urea], the IC50 on TrkA [1] came out at 0.001 µM. Besides, the inhibition in vivo at 1 mg/kg in test [2] came out at 100%.

As for `CCCNc1ncc(-c2ccc(Oc3ncc(NC(=O)Nc4cc(F)ccc4F)cn3)cc2)s1` [Example 85-209, 1-(2,5-difluorophenyl)-3-(2-{4-[2-(propylamino)-1,3-thiazol-5-yl]phenoxy}-5-pyrimidinyl)urea], the IC50 at TrkA [1] worked out at 0.004 µM. The inhibition in vivo at 1 mg/kg in test [2] is 81%.

Regarding `CCCNc1ncc(-c2ccc(Oc3ncc(NC(=O)Nc4cc(C(F)(F)F)ccc4-n4ccc(C(F)(F)F)n4)cn3)cc2)s1` [Example 85-184, 1-(2-{4-[2-(propylamino)-1,3-thiazol-5-yl]phenoxy}-5-pyrimidinyl)-3-{5-(trifluoromethyl)-2-[3-(trifluoromethyl)-1H-pyrazol-1-yl]phenyl}urea], at TrkA [1], the half-inhibitory concentration (IC50) was determined as 0.002 µM. Besides, the inhibition in vivo at 1 mg/kg in test [2] is 96%.

With `Cc1ccc(-n2nc(C(C)(C)C)cc2NC(=O)Nc2cnc(Oc3ccc(-c4cnc(N5CCCC5=O)s4)cc3)nc2)cc1C` [Example 65-1, 1-[1-(3,4-dimethylphenyl)-3-(2-methyl-2-propanyl)-1H-pyrazol-5-yl]-3-(2-{4-[2-(2-oxo-1-pyrrolidinyl)-1,3-thiazol-5-yl]phenoxy}-5-pyrimidinyl)urea], the half-maximal inhibitory concentration (IC50) is 0.002 µM at TrkA [1] and 0.08 µM at TrkA [3].
